Measured values: patent EP4813978A1, “COMPOUND TARGETING UBIQUITIN KRAS PROTEIN DEGRADATION AGENT, AND USE THEREOF” (Betta Pharmaceuticals Co., Ltd, priority 2023, dated 2025)

Experiments:
SW620 = experiment: Cell proliferation assay (Cell-titer Glo), SW620; assay type: cell-based; conditions: Homo sapiens, SW-620, SW620, KRAS G12V, 96 h
Procedure: (§1) Cells with different mutations were seeded in low-attachment transparent 96-well plates at the seeding densities shown in Table 1, and incubated overnight in a cell culture incubator. After the cells adhered, the test compounds were added to the 96-well plates at final concentrations of 20000 nM, 5000 nM, 1250 nM, 312.5 nM, 78.13 nM, 19.53 nM, 4.88 nM, 1.22 nM, 0.31 nM, 0 nM (the final concentration of DMSO was 0.25% in all wells). After culturing at 37°C for 96 h, 50 µL of Cell-titer Glo working solution was added to each well. The plates were shaken to mix and then incubated at room temperature for 10 min. Luminescence values were read on a multimode microplate reader, and the luminescence data were converted into percentage inhibition. The percentage of cell proliferation inhibition was calculated according to the following formula: Percentage inhibition = (1−(TestValue−Blank)/(MaxValue−Blank)) × 100% [formula]
(§2) ("Max value" is from the 0.25% DMSO control wells, "Blank" is from the blank medium control wells, and "Test Value" is from the compound-treated wells).
(§3) Curve fitting was performed using GraphPad Prism software to obtain IC50 (nM) values.

[1] = PK study in Beagle dogs, intravenous single administration; assay type: in vivo; conditions: one female and one male, 3 mg/kg
Procedure: Compound 115 was mixed with the vehicle 10% DMSO/5% Solutol/85% physiological saline, vortexed and sonicated to prepare a 1.5 mg/mL clear intravenous injection solution. Beagle dogs weighing approximately 10 kg (half male, half female) were selected, not fasted, and administered Compound 115 intravenously. Whole blood samples were collected intravenously at 5 min, 15 min, 30 min, 1 h, 2 h, 4 h, 6 h, 8 h, 10 h, 24 h, 48 h, and 72 h. Drug concentrations were analyzed by LC-MS/MS method, and pharmacokinetic parameters were calculated using Phoenix WinNonlin software (Pharsight, USA). Table 5. Beagle Dog PK data for intravenous single administration of Compound 115

HCT116 = experiment: Cell proliferation assay (Cell-titer Glo), HCT116; assay type: cell-based; conditions: Homo sapiens, HCT-116, HCT116, KRAS G13D, 96 h
Procedure: as §1, §2, §3

[2] = PK study in SD rats, intravenous single administration; assay type: in vivo; conditions: male, 3 mg/kg
Procedure: (§4) Compound 115 was mixed with the vehicle 10% DMSO/5% Solutol/85% physiological saline, vortexed and sonicated to prepare a 1.5 mg/mL clear solution. Male SD rats aged 6 to 7 weeks were selected, fasted for 8 h, and then administered Compound 115 intravenously. Whole blood was collected at certain time points. Drug concentrations were analyzed by LC-MS/MS method, and pharmacokinetic parameters were calculated using Phoenix WinNonlin software (Pharsight, USA). Table 4. Rat PK data for intravenous single administration of Compound 115

AGS = experiment: Cell proliferation assay (Cell-titer Glo), AGS; assay type: cell-based; conditions: Homo sapiens, KRAS G12D, 96 h
Procedure: as §1, §2, §3

[3] = PK study in ICR mice, intravenous single administration; assay type: in vivo; conditions: female, 3 mg/kg
Procedure: as §4, with “0.6” for “1.5”, “Female ICR mice” for “Male SD rats”, “not fasted,” for “fasted for 8 h,”, “and” for “and then”, “3. Mouse” for “4. Rat”

Panc0403 = experiment: Cell proliferation assay (Cell-titer Glo), Panc0403; assay type: cell-based; conditions: Homo sapiens, Panc 04.03, Panc0403, KRAS G12D, 96 h
Procedure: as §1, §2, §3

MKN-1 = experiment: Cell proliferation assay (Cell-titer Glo), MKN-1; assay type: cell-based; conditions: Homo sapiens, MKN-1, KRAS WT-Amp, 96 h
Procedure: as §1, §2, §3

AsPC-1 = experiment: Cell proliferation assay (Cell-titer Glo), AsPC-1; assay type: cell-based; conditions: Homo sapiens, ASPC1, AsPC-1, KRAS G12D, 96 h
Procedure: as §1, §2, §3

An IC50 (SW620) of 8 nM, an AUC(0-t) ([1]; dog, in vivo) of 20700 ng·h/mL and a C0 ([1]; dog, in vivo) of 22700 ng/mL were found for `CCc1c(F)ccc2cc(O)cc(-c3ncc4c(N5CCOC[C@@](C)(O)C5)nc(OCC5(CN6CCC7(CCN(Cc8cnc(-c9cn([C@H](C(=O)N%10C[C@H](O)C[C@H]%10C(=O)N[C@@H](C)c%10ccc(-c%11scnc%11C)cc%10)C(C)C)nn9)cn8)CC7)CC6)CC5)nc4c3F)c12` [Compound 115, (2S,4R)-1-((S)-2-(4-(5-((9-((1-(((7-(8-ethyl-7-fluoro-3-hydroxynaphthalen-1-yl)-8-fluoro-4-((S)-6-hydroxy-6-methyl-1,4-oxazepan-4-yl)pyrido[4,3-d]pyrimidin-2-yl)oxy)methyl)cyclopropyl)methyl)-3,9-diazaspiro[5.5]undecan-3-yl)methyl)pyrazin-2-yl)-1H-1,2,3-triazol-1-yl)-3-methylbutanoyl)-4-hydroxy-N-((S)-1-(4-(4-methylthiazol-5-yl)phenyl)ethyl)pyrrolidine-2-carboxamide] in this work. For the same compound, the half-life ([1]; dog, in vivo) was 23.3 h, the Cl_obs [1] was 1.96 mL/min/kg and the Vss_obs [1] was 1.82 L/kg. For the same compound, the IC50 (HCT116) was 20 nM, the Cl_obs [2] was 5.44 mL/min/kg and the Vss_obs [2] was 5.06 L/kg. For the same compound, the AUC(0-t) ([2]; rat, in vivo) was 9170 ng·h/mL, the C0 ([2]; rat, in vivo) was 17300 ng/mL and the half-life ([2]; rat, in vivo) was 12.7 h. It also gave an IC50 (AGS) of 0.9 nM, a Cl_obs [3] of 13.7 mL/min/kg and a Vss_obs [3] of 9.23 L/kg. The AUC(0-t) ([3]; mouse, in vivo) was 3710 ng·h/mL, the C0 ([3]; mouse, in vivo) was 7510 ng/mL and the half-life ([3]; mouse, in vivo) was 13.5 h. For the same compound, the IC50 (Panc0403) was 5.9 nM, the IC50 (MKN-1) was 0.7 nM and the IC50 (AsPC-1) was 1.9 nM.
